Measurements published in patent publication US20250215010A1, “DIAZABICYCLOOCTANE DERIVATIVES USEFUL AS MATRIX METALLOPROTEINASE INHIBITORS” (VASA THERAPEUTICS SPOLKA Z OGRANICZONA ODPOWIEDZIALNOSCIA, priority 2022, published 2025).
Where two headings read alike, the source gives them in different places.

Legend:
Type in all cases: biochemical
[1] = molecular target: T1, MMP1 (Homo sapiens, UniProt P03956); assay: MMP-1 colorimetric inhibition assay (Enzo kit BML-AK404)
T1 sequence (P03956 100-269 limits assumed): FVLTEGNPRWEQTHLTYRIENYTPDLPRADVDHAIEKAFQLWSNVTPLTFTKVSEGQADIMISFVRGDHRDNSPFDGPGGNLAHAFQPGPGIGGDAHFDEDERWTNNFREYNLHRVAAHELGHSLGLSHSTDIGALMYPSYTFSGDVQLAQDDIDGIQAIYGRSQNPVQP
Procedure: (§1) The inhibitory activities of the compounds of the invention were assessed in 96-well microplate format using MMP1, MMP2, MMP9 and MMP13 colorimetric assay kits and TACE fluorometric assay kit from Enzo Life Sciences, Inc. The inhibitory effect of the compounds of the invention on ADAM10 activity were evaluated in 96-well microplate format using fluorometric assay from AnaSpec, Inc.
(§2) The MMP-1 Colorimetric Drug Discovery Kit (catalog #BML-AK404) is a complete assay system designed to screen inhibitors of matrix metalloproteinase-1 using a thiopeptide as a chromogenic substrate (Ac-PLG-[2-mercapto-4-methylpentanoyl]-LG-OC2H5). The MMP cleavage site peptide bond is replaced by a thioester bond in the thiopeptide. Hydrolysis of this bond by an MMP produces a sulfhydryl group, which reacts with DTNB [5,5′-dithiobis(2-nitrobenzoic acid), Ellman's reagent] to form 2-nitro-5-thiobenzoic acid, that can be detected spectrophotometrically.
(§3) The inhibitory activities of the compounds of the invention against MMP1, MMP2, MMP9 and MMP13 were tested according to the manufacturer's assay protocols and the absorbance at 415 nm was monitored using the Tecan Infinite® 200 Pro F Nano^+ microplate reader.
(§4) The normalized values were analyzed using GraphPadPrism 9 for Windows (GraphPad Software, San Diego, CA, USA) software by plotting inhibition curves and determining the IC50 values (in nM).

[2] = molecular target: T2, MMP2 (Homo sapiens, UniProt P08253); assay: MMP-2 colorimetric inhibition assay (Enzo kit BML-AK408)
T2 sequence (P08253 110-660): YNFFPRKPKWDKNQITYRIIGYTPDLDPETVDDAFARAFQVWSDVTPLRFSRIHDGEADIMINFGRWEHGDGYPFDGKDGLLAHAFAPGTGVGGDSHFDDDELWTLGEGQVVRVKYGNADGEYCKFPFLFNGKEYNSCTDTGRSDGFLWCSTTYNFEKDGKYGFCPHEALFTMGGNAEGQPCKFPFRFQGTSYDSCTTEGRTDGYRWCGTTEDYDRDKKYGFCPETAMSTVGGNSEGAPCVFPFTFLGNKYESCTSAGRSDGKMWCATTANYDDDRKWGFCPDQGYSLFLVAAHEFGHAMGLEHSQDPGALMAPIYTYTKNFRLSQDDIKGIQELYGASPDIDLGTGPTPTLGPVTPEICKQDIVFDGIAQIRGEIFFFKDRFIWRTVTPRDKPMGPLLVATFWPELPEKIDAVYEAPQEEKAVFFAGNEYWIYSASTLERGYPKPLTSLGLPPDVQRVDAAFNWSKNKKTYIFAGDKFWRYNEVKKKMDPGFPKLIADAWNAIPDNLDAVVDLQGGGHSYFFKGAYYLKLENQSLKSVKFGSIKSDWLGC
Procedure: as §1
as §2, with “MMP-2” for “MMP-1”, “#BML-AK408)” for “#BML-AK404)”, “screen MMP-2” for “screen”, “inhibitors” for “inhibitors of matrix metalloproteinase-1”
as §3, §4

[3] = molecular target: MMP9 (Homo sapiens, UniProt P14780); assay: MMP-9 colorimetric inhibition assay (Enzo kit BML-AK410)
Chain of MMP9 (P14780 94-707): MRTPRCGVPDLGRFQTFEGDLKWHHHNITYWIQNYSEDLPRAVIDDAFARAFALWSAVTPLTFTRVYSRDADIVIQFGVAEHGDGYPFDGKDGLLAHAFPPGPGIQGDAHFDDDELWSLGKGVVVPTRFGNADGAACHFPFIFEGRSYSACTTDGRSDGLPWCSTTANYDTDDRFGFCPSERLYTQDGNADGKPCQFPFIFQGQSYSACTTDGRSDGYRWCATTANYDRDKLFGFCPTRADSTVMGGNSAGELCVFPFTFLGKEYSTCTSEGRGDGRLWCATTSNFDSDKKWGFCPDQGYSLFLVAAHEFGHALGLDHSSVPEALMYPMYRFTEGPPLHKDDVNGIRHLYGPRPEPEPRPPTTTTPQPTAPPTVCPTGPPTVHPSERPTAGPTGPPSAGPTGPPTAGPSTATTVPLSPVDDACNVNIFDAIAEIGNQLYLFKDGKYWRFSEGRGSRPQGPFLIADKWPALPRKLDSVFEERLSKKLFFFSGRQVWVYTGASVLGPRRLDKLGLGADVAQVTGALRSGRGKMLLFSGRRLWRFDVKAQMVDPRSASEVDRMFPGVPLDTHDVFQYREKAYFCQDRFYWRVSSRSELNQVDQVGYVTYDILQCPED
Procedure: as §1
as §2, with “MMP-9” for “MMP-1”, “#BML-AK410)” for “#BML-AK404)”, “metalloproteinase-9” for “metalloproteinase-1”
as §3, §4

[4] = molecular target: T3, MMP13 (Homo sapiens, UniProt P45452); assay: MMP-13 colorimetric inhibition assay (Enzo kit BML-AK412)
T3 construct: purchased Enzo Life Sciences, Inc. BML-AK412
Procedure: as §1
as §2, with “MMP-13” for “MMP-1”, “#BML-AK412)” for “#BML-AK404)”, “metalloproteinase-13” for “metalloproteinase-1”
as §3, §4

[5] = molecular target: ADAM17 (TACE) (Homo sapiens, UniProt P78536); assay: TACE fluorometric inhibition assay (Enzo kit BML-AK310)
Chain of ADAM17 (TACE) (P78536 215-477 limits assumed): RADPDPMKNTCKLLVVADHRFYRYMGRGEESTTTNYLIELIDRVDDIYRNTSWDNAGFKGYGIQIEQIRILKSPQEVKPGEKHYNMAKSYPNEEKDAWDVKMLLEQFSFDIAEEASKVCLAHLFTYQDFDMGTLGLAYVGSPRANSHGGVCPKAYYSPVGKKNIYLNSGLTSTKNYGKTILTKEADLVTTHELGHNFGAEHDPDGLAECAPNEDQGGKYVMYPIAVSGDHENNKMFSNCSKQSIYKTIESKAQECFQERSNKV
Procedure: as §1
The TACE Fluorometric Drug Discovery Kit (catalog #BML-AK310) is a complete assay system designed to screen ADAM17 (TACE) inhibitors using a quenched fluorogenic peptide: Mca-PLAQAV-Dpa-RSSSR—NH2. Mca fluorescence is quenched by the Dpa group until cleavage by proteases separates the two moieties leading to an increase in Mca fluorescence.
The inhibitory activity of the compounds of the invention against TACE was tested according to the manufacturer's assay protocol and the fluorescence was monitored at excitation/emission wavelengths=320 nm/420 nm using Tecan Infinite® 200 Pro F Nano^+ microplate reader.
as §4

[6] = thiopeptide substrate, absorbance 415 nm, read-out: MMP 1 IC50 class
[7] = thiopeptide substrate, absorbance 415 nm, read-out: MMP 2 IC50 class
[8] = thiopeptide substrate, absorbance 415 nm, read-out: MMP 9 IC50 class
[9] = thiopeptide substrate, absorbance 415 nm, read-out: MMP 13 IC50 class
[10] = quenched fluorogenic peptide, ex/em 320/420 nm, read-out: TACE IC50 class

Compound	IC50 [1, 6] [µM]	IC50 [2, 7] [µM]	IC50 [3, 8] [µM]	IC50 [4, 9] [µM]	IC50 [5, 10] [µM]	IC50 [1] [µM]	IC50 [2] [µM]	IC50 [3] [µM]	IC50 [4] [µM]	IC50 [5] [µM]
COCCOC(=O)N1[C@@H]2CC[C@H]1[C@H](C(=O)NO)N(S(=O)(=O)c1ccc(Oc3cncc(F)c3)nc1)C2 [Example 23, 2-methoxyethyl (1S,2R,5R)-3-((6-((5-fluoropyridin-3-yl)oxy)pyridin-3-yl)-sulfonyl)-2-(hydroxycarbamoyl)-3,8-diaza-bicyclo[3.2.1]octane-8-carboxylate]	0.05 to 1	< 0.05	0.05 to 1	0.05 to 1	1 to 10	–	–	–	–	–
COCCOC(=O)N1[C@@H]2CC[C@H]1[C@H](C(=O)NO)N(S(=O)(=O)c1ccc(Oc3ccc(C(C)(C)O)cc3)nc1)C2 [Example 26, 2-methoxyethyl (1S,2R,5R)-2-(hydroxycarbamoyl)-3-((6-(4-(2-hydroxy-propan-2-yl)-phenoxy)pyridin-3-yl)sulfonyl)-3,8-diazabicyclo[3.2.1]-octane-8-carboxylate]	> 10	< 0.05	0.05 to 1	0.05 to 1	1 to 10	–	–	–	–	–
COCCOC(=O)N1[C@@H]2CC[C@H]1[C@H](C(=O)NO)N(S(=O)(=O)c1ccc(Oc3cnc(OC)nc3)nc1)C2 [Example 27, 2-methoxyethyl (1S,2R,5R)-2-(hydroxycarbamoyl)-3-((6-((2-methoxy-pyrimidin-5-yl)oxy)-pyridin-3-yl)-sulfonyl)-3,8-diaza-bicyclo[3.2.1]octane-8-carboxylate]	> 10	< 0.05	0.05 to 1	0.05 to 1	1 to 10	–	–	–	–	–
CCn1cc(Oc2ccc(S(=O)(=O)N3C[C@H]4CC[C@@H]([C@@H]3C(=O)NO)N4C(=O)OCCOC)cn2)cn1 [Example 35, 2-methoxyethyl (1S,2R,5R)-3-((6-((1-ethyl-1H-pyrazol-4-yl)-oxy)pyridin-3-yl)-sulfonyl)-2-(hydroxycarbamoyl)-3,8-diaza-bicyclo[3.2.1]octane-8-carboxylate]	0.05 to 1	< 0.05	< 0.05	< 0.05	0.05 to 1	–	–	–	–	–
COCCOC(=O)N1[C@@H]2CC[C@H]1[C@H](C(=O)NO)N(S(=O)(=O)c1ccc(Oc3cnn(C(C)C)c3)nc1)C2 [Example 37, 2-methoxyethyl (1S,2R,5R)-2-(hydroxycarbamoyl)-3-((6-((1-isopropyl-1H-pyrazol-4-yl)-oxy)pyridin-3-yl)-sulfonyl)-3,8-diazabicyclo-[3.2.1]octane-8-carboxylate]	1 to 10	0.05 to 1	0.05 to 1	0.05 to 1	0.05 to 1	–	–	–	–	–
COCCOC(=O)N1[C@@H]2CC[C@H]1[C@H](C(=O)NO)N(S(=O)(=O)c1ccc(Oc3cnn(CC(C)C)c3)nc1)C2 [Example 38, 2-methoxyethyl (1S,2R,5R)-2-(hydroxycarbamoyl)-3-((6-((1-isobutyl-1H-pyrazol-4-yl)oxy)pyridin-3-yl)sulfonyl)-3,8-diazabicyclo-[3.2.1]octane-8-carboxylate]	1 to 10	0.05 to 1	0.05 to 1	0.05 to 1	0.05 to 1	–	–	–	–	–
COCCOC(=O)N1[C@@H]2CC[C@H]1[C@H](C(=O)NO)N(S(=O)(=O)c1ccc(Oc3cnn(-c4ccc(F)cc4)c3)nc1)C2 [Example 40, 2-methoxyethyl (1S,2R,5R)-3-((6-((1-(4-fluorophenyl)-1H-pyrazol-4-yl)oxy)pyridin-3-yl)sulfonyl)-2-(hydroxycarbamoyl)-3,8-diazabicyclo-[3.2.1]octane-8-carboxylate]	0.05 to 1	< 0.05	< 0.05	< 0.05	0.05 to 1	–	–	–	–	–
COCCOC(=O)N1[C@@H]2CC[C@H]1[C@H](C(=O)NO)N(S(=O)(=O)c1cc(F)c(Oc3cnn(C)c3)c(F)c1)C2 [Example 42, 2-methoxyethyl (1S,2R,5R)-3-((3,5-difluoro-4-((1-methyl-1H-pyrazol-4-yl)oxy)phenyl)sulfonyl)-2-(hydroxycarbamoyl)-3,8-diazabicyclo[3.2.1]octane-8-carboxylate]	1 to 10	0.05 to 1	0.05 to 1	0.05 to 1	0.05 to 1	–	–	–	–	–
COCCOC(=O)N1[C@@H]2CC[C@H]1[C@H](C(=O)NO)N(S(=O)(=O)c1ccc(Oc3ccc(OCF)cc3)nc1)C2 [Example 43, 2-methoxyethyl (1S,2R,5R)-3-((6-(4-(fluoromethoxy)phenoxy)pyridin-3-yl)sulfonyl)-2-(hydroxycarbamoyl)-3,8-diazabicyclo[3.2.1]octane-8-carboxylate]	1 to 10	< 0.05	< 0.05	< 0.05	1 to 10	–	–	–	–	–
COCCOC(=O)N1[C@@H]2CC[C@H]1[C@H](C(=O)NO)N(S(=O)(=O)N1CCC(Oc3ccc(Cl)cc3)C1)C2 (stereo partly drawn) [Example 46, 2-methoxyethyl (1S,2R,5R)-3-((3-(4-chloro-phenoxy)-pyrrolidin-1-yl)-sulfonyl)-2-(hydroxy-carbamoyl)-3,8-diazabicyclo-[3.2.1]octane-8-carboxylate]	–	–	–	–	–	> 10	0.05 to 1	0.05 to 1	0.05 to 1	0.05 to 1
COCCOC(=O)N1[C@@H]2CC[C@H]1[C@H](C(=O)NO)N(S(=O)(=O)N1CCC(Oc3ccc(F)cc3)C1)C2 (stereo partly drawn) [Example 47, 2-methoxyethyl (1S,2R,5R)-3-((3-(4-fluoro-phenoxy)-pyrrolidin-1-yl)-sulfonyl)-2-(hydroxy-carbamoyl)-3,8-diazabicyclo-[3.2.1]octane-8-carboxylate]	–	–	–	–	–	> 10	1 to 10	1 to 10	1 to 10	0.05 to 1
COCCOC(=O)N1[C@@H]2CC[C@H]1[C@H](C(=O)NO)N(S(=O)(=O)N1CCC(Oc3ccnc(C(F)(F)F)c3)CC1)C2 [Example 49, 2-methoxyethyl (1S,2R,5R)-2-(hydroxy-carbamoyl)-3-((4-((2-(trifluoro-methyl)pyridin-4-yl)oxy)-piperidin-1-yl)-sulfonyl)-3,8-diazabicyclo-[3.2.1]octane-8-carboxylate]	> 10	0.05 to 1	0.05 to 1	0.05 to 1	1 to 10	–	–	–	–	–
